{"source": "patent US20250282794A1", "about": "(CURADEV PHARMA LTD, priority 2022, published 2025)"}
{"target": "recombinant full length HPK-1 enzyme (Homo sapiens (Human), UniProt Q92918)", "sequence (Q92918 whole entry, species assumed)": "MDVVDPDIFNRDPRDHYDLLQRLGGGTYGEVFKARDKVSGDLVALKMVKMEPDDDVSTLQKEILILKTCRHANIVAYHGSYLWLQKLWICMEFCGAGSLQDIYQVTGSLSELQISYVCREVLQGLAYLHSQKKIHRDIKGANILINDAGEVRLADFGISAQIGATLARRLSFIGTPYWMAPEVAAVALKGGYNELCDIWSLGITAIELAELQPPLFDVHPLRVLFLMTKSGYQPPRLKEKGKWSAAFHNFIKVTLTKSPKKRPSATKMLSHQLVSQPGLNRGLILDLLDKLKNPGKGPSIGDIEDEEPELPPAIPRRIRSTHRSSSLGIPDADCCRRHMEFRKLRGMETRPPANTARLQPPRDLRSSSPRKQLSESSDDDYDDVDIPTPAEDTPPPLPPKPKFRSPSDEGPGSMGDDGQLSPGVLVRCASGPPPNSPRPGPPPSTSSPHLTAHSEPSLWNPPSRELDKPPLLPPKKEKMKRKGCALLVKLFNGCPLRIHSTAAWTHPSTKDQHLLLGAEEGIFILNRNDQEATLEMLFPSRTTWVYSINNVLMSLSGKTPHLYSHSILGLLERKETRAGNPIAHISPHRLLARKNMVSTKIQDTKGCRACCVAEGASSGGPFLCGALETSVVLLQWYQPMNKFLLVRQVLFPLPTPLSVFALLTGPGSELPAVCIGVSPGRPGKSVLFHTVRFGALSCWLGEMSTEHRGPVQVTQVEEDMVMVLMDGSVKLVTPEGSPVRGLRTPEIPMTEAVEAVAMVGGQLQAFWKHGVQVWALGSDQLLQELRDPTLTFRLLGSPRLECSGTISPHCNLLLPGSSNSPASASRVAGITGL", "assay": "HPK-1 biochemical enzyme assay (ADP-Glo kinase inhibition)", "settings": "recombinant full length HPK-1 6.8 nM, 10 μM ATP, 12.5 μM MBP, 30 mins at 25° C.", "description": "HPK-1 biochemical enzyme assay\nCompound inhibitory potency was measured in an HPK-1 kinase inhibition assay. Briefly, recombinant full length HPK-1 enzyme (6.8 nM) was incubated with 10 μM ATP and 12.5 μM swine myelin basic protein (MBP) for 30 mins. at 25° C. in the presence of various concentrations of test compound or vehicle in 40 mM Tris.Cl pH7.4 buffer containing 20 mM MgCl2, 50 μM DTT and 0.1 mg/mL BSA. Reactions were quenched and reaction mixtures were then analyzed by an ADP-Glo kit which measures the formed ADP. The percent inhibition was calculated from the substrate conversion considering no enzyme control reactions for 100% inhibition and vehicle only reactions for 0% inhibition. The compounds were dissolved in DMSO and evaluated at 10 concentrations to determine an IC50 value.\nIn the below table A denotes an HPK-1 IC50≤10 nM, B denotes an HPK-1 IC50>10 nM but≤100 nM and C denotes an HPK-1 IC50>100 nM but≤1000 nM.", "units": {"IC50": "µM"}}
{"compound": "COCCN1CCC(c2ccc(NC(=O)c3c(Nc4cnc5c(c4C)NCCO5)cc[nH]c3=O)cc2)CC1", "note": "[Example 202, N-(4-(1-(2-methoxyethyl)piperidin-4-yl)phenyl)-4-((8-methyl-2,3-dihydro-1H-pyrido[2,3-b][1,4]oxazin-7-yl)amino)-2-oxo-1,2-dihydropyridine-3-carboxamide]", "IC50": "0.01 to 0.1"}
{"compound": "COC(C)(C)C(=O)N1CCN(c2ccc(NC(=O)c3c(Nc4cnc5c(c4C)NCCO5)cc[nH]c3=O)cc2)CC1", "note": "[Example 344, N-(4-(4-(2-methoxy-2-methylpropanoyl)piperazin-1-yl)phenyl)-4-((8-methyl-2,3-dihydro-1H-pyrido[2,3-b][1,4]oxazin-7-yl)amino)-2-oxo-1,2-dihydropyridine-3-carboxamide]", "IC50": "≤ 0.01"}
{"compound": "Cc1c(Nc2cc[nH]c(=O)c2C(=O)Nc2ccc(N3CCC(N4CCN(C)CC4)CC3)cc2)cnc2c1NCCO2", "note": "[Example 274, 4-((8-methyl-2,3-dihydro-1H-pyrido[2,3-b][1,4]oxazin-7-yl)amino)-N-(4-(4-(4-methylpiperazin-1-yl)piperidin-1-yl)phenyl)-2-oxo-1,2-dihydropyridine-3-carboxamide]", "IC50": "≤ 0.01"}
{"compound": "Cc1c(Nc2cc[nH]c(=O)c2C(=O)Nc2ccc(N3CCN(C(C)c4ccn[nH]4)CC3)cc2)cnc2c1NCCO2", "note": "(stereo not shown) [Example 378, N-(4-(4-(1-(1H-pyrazol-5-yl)ethyl)piperazin-1-yl)phenyl)-4-((8-methyl-2,3-dihydro-1H-pyrido[2,3-b][1,4]oxazin-7-yl)amino)-2-oxo-1,2-dihydropyridine-3-carboxamide]", "IC50": "≤ 0.01"}
{"compound": "Cc1c(Nc2cc[nH]c(=O)c2C(=O)Nc2ccc(N3CCN(C4CC4)CC3)c(Cl)c2)cnc2c1NCCO2", "note": "[Example 391, N-(3-chloro-4-(4-cyclopropylpiperazin-1-yl)phenyl)-4-((8-methyl-2,3-dihydro-1H-pyrido[2,3-b][1,4]oxazin-7-yl)amino)-2-oxo-1,2-dihydropyridine-3-carboxamide]", "IC50": "≤ 0.01"}
{"compound": "Cc1c(Nc2cc[nH]c(=O)c2C(=O)Nc2ccc(N3CCN(c4nccn4C)CC3)cc2)cnc2c1NCCO2", "note": "[Example 366, N-(4-(4-(1-methyl-1H-imidazol-2-yl)piperazin-1-yl)phenyl)-4-((8-methyl-2,3-dihydro-1H-pyrido[2,3-b][1,4]oxazin-7-yl)amino)-2-oxo-1,2-dihydropyridine-3-carboxamide]", "IC50": "≤ 0.01"}
{"compound": "COC(C)(C)CN1CCN(c2ccc(NC(=O)c3c(Nc4cnc5c(c4C)NCCO5)cc[nH]c3=O)cc2)CC1", "note": "[Example 310, N-(4-(4-(2-methoxy-2-methylpropyl)piperazin-1-yl)phenyl)-4-((8-methyl-2,3-dihydro-1H-pyrido[2,3-b][1,4]oxazin-7-yl)amino)-2-oxo-1,2-dihydropyridine-3-carboxamide]", "IC50": "≤ 0.01"}
{"compound": "Cc1c(Nc2cc[nH]c(=O)c2C(=O)Nc2ccc(-n3ccnc3)cc2)cnc2c1NCCO2", "note": "[Example 255, N-(4-(1H-imidazol-1-yl)phenyl)-4-((8-methyl-2,3-dihydro-1H-pyrido[2,3-b][1,4]oxazin-7-yl)amino)-2-oxo-1,2-dihydropyridine-3-carboxamide]", "IC50": "0.01 to 0.1"}
{"compound": "Cc1c(Nc2cc[nH]c(=O)c2C(=O)Nc2ccc(N3CCN(C)CC3)cc2)cnc2c1NCC(F)O2", "note": "(stereo not shown) [Example 198, 4-((3-Fluoro-8-methyl-2,3-dihydro-1H-pyrido[2,3-b][1,4]oxazin-7-yl)amino)-N-(4-(4-methylpiperazin-1-yl)phenyl)-2-oxo-1,2-dihydropyridine-3-carboxamide]", "IC50": "0.01 to 0.1"}
{"compound": "Cc1c(Nc2cc[nH]c(=O)c2C(=O)Nc2ccc(N3CCCC3CO)cc2)cnc2c1NCCO2", "note": "(stereo not shown) [Example 397, N-(4-(2-(hydroxymethyl)pyrrolidin-1-yl)phenyl)-4-((8-methyl-2,3-dihydro-1H-pyrido[2,3-b][1,4]oxazin-7-yl)amino)-2-oxo-1,2-dihydropyridine-3-carboxamide]", "IC50": "0.01 to 0.1"}
{"compound": "Cc1c(Nc2cc[nH]c(=O)c2C(=O)Nc2ccc(N3C[C@@H]4C[C@H]3CN4C)cc2)cnc2c1NCCO2", "note": "[Example 236, 4-((8-methyl-2,3-dihydro-1H-pyrido[2,3-b][1,4]oxazin-7-yl)amino)-N-(4-((1S,4S)-5-methyl-2,5-diazabicyclo[2.2.1]heptan-2-yl)phenyl)-2-oxo-1,2-dihydropyridine-3-carboxamide]", "IC50": "0.01 to 0.1"}
{"compound": "COCCN1CCN(c2ccc(NC(=O)c3c(Nc4cnc5c(c4C)NCCO5)cc[nH]c3=O)cc2)CC1", "note": "[Example 140, N-(4-(4-(2-methoxyethyl)piperazin-1-yl)phenyl)-4-((8-methyl-2,3-dihydro-1H-pyrido[2,3-b][1,4]oxazin-7-yl)amino)-2-oxo-1,2-dihydropyridine-3-carboxamide]", "IC50": "≤ 0.01"}
{"compound": "Cc1c(Nc2cc[nH]c(=O)c2C(=O)Nc2ccc(N3CCN(CCF)CC3)c(F)c2)cnc2c1NCCO2", "note": "[Example 387, N-(3-fluoro-4-(4-(2-fluoroethyl)piperazin-1-yl)phenyl)-4-((8-methyl-2,3-dihydro-1H-pyrido[2,3-b][1,4]oxazin-7-yl)amino)-2-oxo-1,2-dihydropyridine-3-carboxamide]", "IC50": "0.01 to 0.1"}
{"compound": "Cc1c(Nc2cc[nH]c(=O)c2C(=O)Nc2ccc(N3CCN(C4CC4)CC3)cc2)cnc2c1NCCO2", "note": "[Example 167, N-(4-(4-Cyclopropylpiperazin-1-yl)phenyl)-4-((8-methyl-2,3-dihydro-1H-pyrido[2,3-b][1,4]oxazin-7-yl)amino)-2-oxo-1,2-dihydropyridine-3-carboxamide]", "IC50": "≤ 0.01"}
{"compound": "Cc1c(Nc2cc[nH]c(=O)c2C(=O)Nc2ccc3c(c2)CCC(=O)N3)cnc2c1NCCO2", "note": "[Example 252, 4-((8-methyl-2,3-dihydro-1H-pyrido[2,3-b][1,4]oxazin-7-yl)amino)-2-oxo-N-(2-oxo-1,2,3,4-tetrahydroquinolin-6-yl)-1,2-dihydropyridine-3-carboxamide]", "IC50": "0.01 to 0.1"}
{"compound": "Cc1c(Nc2cc[nH]c(=O)c2C(=O)Nc2ccc(N3CCCC(C(C)(C)O)C3)cc2)cnc2c1NCCO2", "note": "(stereo not shown) [Example 212, N-(4-(3-(2-hydroxypropan-2-yl)piperidin-1-yl)phenyl)-4-((8-methyl-2,3-dihydro-1H-pyrido[2,3-b][1,4]oxazin-7-yl)amino)-2-oxo-1,2-dihydropyridine-3-carboxamide]", "IC50": "≤ 0.01"}
{"compound": "Cc1c(Nc2cc[nH]c(=O)c2C(=O)Nc2ccc(S(N)(=O)=O)cc2)cnc2c1NCCO2", "note": "[Example 210, 4-((8-methyl-2,3-dihydro-1H-pyrido[2,3-b][1,4]oxazin-7-yl)amino)-2-oxo-N-(4-sulfamoylphenyl)-1,2-dihydropyridine-3-carboxamide]", "IC50": "0.01 to 0.1"}
{"compound": "Cc1c(Nc2cc[nH]c(=O)c2C(=O)Nc2ccc(N3CCN(C(=O)C(C)(C)O)CC3)cc2)cnc2c1NCCO2", "note": "[Example 357, N-(4-(4-(2-hydroxy-2-methylpropanoyl)piperazin-1-yl)phenyl)-4-((8-methyl-2,3-dihydro-1H-pyrido[2,3-b][1,4]oxazin-7-yl)amino)-2-oxo-1,2-dihydropyridine-3-carboxamide]", "IC50": "≤ 0.01"}
{"compound": "Cc1c(Nc2cc[nH]c(=O)c2C(=O)Nc2ccc(C3CCN(C(C)C)CC3)cc2)cnc2c1NCC(C)O2", "note": "(stereo not shown) [Example 384, 4-((3,8-dimethyl-2,3-dihydro-1H-pyrido[2,3-b][1,4]oxazin-7-yl)amino)-N-(4-(1-isopropylpiperidin-4-yl)phenyl)-2-oxo-1,2-dihydropyridine-3-carboxamide]", "IC50": "0.01 to 0.1"}
{"compound": "Cc1c(Nc2cc[nH]c(=O)c2C(=O)Nc2ccc(N3CCN(C(=O)c4ccn[nH]4)CC3)cc2)cnc2c1NCCO2", "note": "[Example 303, N-(4-(4-(1H-pyrazole-5-carbonyl)piperazin-1-yl)phenyl)-4-((8-methyl-2,3-dihydro-1H-pyrido[2,3-b][1,4]oxazin-7-yl)amino)-2-oxo-1,2-dihydropyridine-3-carboxamide]", "IC50": "≤ 0.01"}
{"compound": "Cc1c(Nc2cc[nH]c(=O)c2C(=O)Nc2ccc(N3CCN(C)CC3)nc2)cnc2c1NCC(C)O2", "note": "(stereo not shown) [Example 199]", "IC50": "0.01 to 0.1"}
{"compound": "Cc1c(Nc2cc[nH]c(=O)c2C(=O)Nc2ccc3c(c2)CN(C)C(=O)C3)cnc2c1NCCO2", "note": "[Example 180, 4-((8-methyl-2,3-dihydro-1H-pyrido[2,3-b][1,4]oxazin-7-yl)amino)-N-(2-methyl-3-oxo-1,2,3,4-tetrahydroisoquinolin-7-yl)-2-oxo-1,2-dihydropyridine-3-carboxamide]", "IC50": "0.01 to 0.1"}
{"compound": "Cc1c(Nc2cc[nH]c(=O)c2C(=O)Nc2ccc(Cc3ccncc3)cc2)cnc2c1NCCO2", "note": "[Example 233, 4-((8-methyl-2,3-dihydro-1H-pyrido[2,3-b][1,4]oxazin-7-yl)amino)-2-oxo-N-(4-(pyridin-4-ylmethyl)phenyl)-1,2-dihydropyridine-3-carboxamide]", "IC50": "0.01 to 0.1"}
{"compound": "Cc1c(Nc2cc[nH]c(=O)c2C(=O)Nc2ccc(N3CCN(C)CC3)c(N(C)C)c2)cnc2c1NCCO2", "note": "[Example 291, N-(3-(dimethylamino)-4-(4-methylpiperazin-1-yl)phenyl)-4-((8-methyl-2,3-dihydro-1H-pyrido[2,3-b][1,4]oxazin-7-yl)amino)-2-oxo-1,2-dihydropyridine-3-carboxamide]", "IC50": "0.01 to 0.1"}
{"compound": "Cc1c(Nc2cc[nH]c(=O)c2C(=O)Nc2ccc(S(=O)(=O)NC3CC3)cc2)cnc2c1NCCO2", "note": "[Example 231, N-(4-(N-cyclopropylsulfamoyl)phenyl)-4-((8-methyl-2,3-dihydro-1H-pyrido[2,3-b][1,4]oxazin-7-yl)amino)-2-oxo-1,2-dihydropyridine-3-carboxamide]", "IC50": "0.01 to 0.1"}
